From ChEMBL document CHEMBL1134167, “Conformational study of a highly specific CXCR4 inhibitor, T140, disclosing the close proximity of its intrinsic pharmacophores associated with strong anti-HIV activity” (Bioorg Med Chem Lett, 2001)
Where a SMILES comes first, the peptide text is derived from it. Bridges are numbered along the chain shown (N, C = ends). [ ]: non-standard residue; d: D form. Gly(2-naphthyl) = N[C@H](C(=O)O)c1ccc2ccccc2c1; Cit = NC(=O)NCCC[C@H](N)C(=O)O

Tested on: Human immunodeficiency virus 1
Assay: Effective concentration for HIV-1 inhibition
Format: functional, organism-based

EC50: 3.5 nM
Compound: NCCCC[C@@H]1NC(=O)[C@H](CCCN=C(N)N)NC(=O)[C@H](Cc2ccc(O)cc2)NC(=O)[C@@H](NC(=O)[C@@H](NC(=O)[C@H](CCCN=C(N)N)NC(=O)[C@@H](N)CCCN=C(N)N)c2ccc3ccccc3c2)CSSC[C@@H](C(=O)N[C@@H](CCCN=C(N)N)C(=O)O)NC(=O)[C@H](CCCNC(N)=O)NC(=O)[C@H](CCCN=C(N)N)NC(=O)[C@H](Cc2ccc(O)cc2)NC(=O)[C@@H]2CCCN2C(=O)[C@@H](CCCCN)NC1=O (H-RR[Gly(2-naphthyl)]CYRK[dK]PYR[Cit]CR-OH; disulfide 4-13)
